Consider 93 compounds from a melting point compilation (Tetko et al.; mined from patent text by program, amines drawn as free bases though some values may be those of a salt).

The term melting point denotes the temperature of the solid-liquid transition. With `CNC(=O)N(N)c1nnc(C(C)(C)C)s1`, the melting point is 141 to 142 °C. Next, `CC(c1cc(C#N)ncn1)C(O)(Cn1cncn1)c1ccc(F)cc1F` (stereo not drawn): 148 to 149 °C. As for `CC(C)(c1ccc(S(=O)(=O)N(CCO)CCO)cc1[N+](=O)[O-])[N+](=O)[O-]`, the figure is 109 to 110 °C; as for `O=C(O)C1C2CCC(=O)C21` (stereo not drawn), 110 to 115 °C; as for `Cc1ccc(S(=O)(=O)Nc2cnc(C3OCCO3)cc2C)cc1`, 155 to 156 °C. `CCOC(=O)Cn1nnnc1C(=O)OCC` gave a melting point of 26 to 29.5 °C. Next, `NCC1COc2cc(Cl)cc(-c3ccccc3Cl)c2N1` (stereo not drawn): 108 °C; `Cc1nc2c(n1C)CCCC2=O`: 98.1 °C; `O=C(O)C1=Cc2c(ccc(Cl)c2-c2ccco2)OC1C(F)(F)F` (stereo not drawn): 191 to 193 °C. In turn, `COC(=O)c1cc(N)ccc1OC(C)=O` displayed a melting point of 99 to 100 °C. As for `COc1ccc(N2CCOCC2)c2sc(NC(=O)NC3CCCC3)nc12`, the figure is 191 to 194 °C. `O=C1OCc2c(-c3noc(C4CC4)n3)ncn2-c2ccccc21` showed a melting point of 206 to 209 °C. Next, `Cc1ccc(C(=O)c2cc(CCN(C)C)c(O)c(C(C)(C)C)c2)cc1`: 123 to 124 °C. In the case of `CCCCCCCCCC(CCC)CC(C)CC(O)c1cc(O)ccc1O` (stereo not drawn), the melting point came to 123 °C.

`Cc1cnn(-c2ccc(Cl)cc2Cl)c(=O)c1Br` showed a melting point of 108 °C. Take `CCCCCCCCCCCCCCCCCC(=O)Oc1ccc2c(c1)C(=O)c1ccc(OC(=O)CCCCCCCCCCCCCCCCC)cc1C2=O`: the melting point is 129 to 132 °C. In the case of `CC1CNc2cc(C3=NNC(=O)CC3)ccc2O1` (stereo not drawn), the melting point fell in the range of 294 to 296 °C.

In turn, `CN1C(=O)CC[C@]2(C)c3ccc(Sc4ccc5nc6ccccc6c(=O)n5n4)cc3CC[C@@H]12` showed a melting point of 110 to 114 °C. Compound `N#Cc1cccc(NC(=O)CN2CCN(c3ncccc3C#N)CC2)c1` displayed a melting point of 166 to 167 °C. Compound `CC(=O)OC1CCc2cc3ccccc3n2C1` (stereo not drawn) registered a melting point of 90 to 95 °C.

Consider `CC12C=CC(=O)C(N)=C1C=CC1C2CCC2(C)C(=O)CCC12` (stereo not drawn), for which the melting point was in the range of 206 to 208 °C. `CCOC(=O)c1cn2c(nc1=O)CCCCC2` displayed a melting point of 156 to 157 °C. As to `Cc1nc(-c2cccnc2)c2nc(-c3ccccc3)cc-2[nH]1`, the melting point lay in the range of 252 to 254 °C.

`Cc1ccc(S(=O)(=O)OCC2C(=O)Nc3ccccc3SC2c2ccccc2)cc1` (stereo not drawn) gave a melting point of 215 °C.

Consider `CCCOc1cc([N+](=O)[O-])ccc1[N+](=O)[O-]`, for which the melting point was in the range of 52 to 54 °C.

`COc1ccc(CC2C3=C(CCCC3)CCN2C(=O)C2CCC2)cc1` (stereo not drawn) showed a melting point of 89 to 91 °C. For `CCOC(=O)c1c(C)cc2nc(COC(=O)NCCO)n(-c3ccccc3S(=O)(=O)NC)c(=O)c2c1C`, the melting point was in the range of 122 to 125 °C. In the case of `CN1C(=O)N(c2cc(Cl)nc(Cl)c2)C(=O)[C@]12CNC[C@H]2c1ccc(C#N)cc1` (relative stereo), the melting point came to 202 °C. On to `CC(C)c1cc(-c2ccc(F)cc2)cc(-c2ccc(F)cc2)c1C=O`, for which the melting point was 110 to 112 °C.

Compound `N#Cc1c2n(c3ccccc13)CCNCC2` had a melting point of 161 to 164 °C. For the compound `Nc1nc2ccccc2c2c1ncn2Cc1ccccc1`, the melting point was 257 to 259 °C. The compound `O=C(Nc1ccc(Oc2cc(Cl)ncn2)cc1)Nc1ccc(Br)c(C(F)(F)F)c1` had a melting point of 179 to 182 °C. With `CCCCCC(Cc1cnc(SCCC)n1Cc1ccccc1Cl)C(=O)O` (stereo not drawn), the melting point was in the range of 122 to 124 °C.

`Cc1cc2c(c3c1CCC3)OC(CNC(=O)OCc1ccccc1)C2` (stereo not drawn) came in with a melting point of 109 to 113 °C. In turn, `CC(Oc1ccc(F)cc1)C(=O)O` (stereo not drawn) came in with a melting point of 113 to 115 °C. As for `CSCCOc1ccc(/C=C(\C)c2ccc3c(c2)C(C)(C)CCC3(C)C)cc1`, the figure is 94 to 96 °C; as for `CCOC(=O)/C=C/c1cc2c(Nc3ccc4[nH]ccc4c3)c(C#N)cnc2s1`, 226 °C; as for `CN1CCOc2cc(N)ccc2C1=O`, 169 to 170 °C. In turn, `CCOCc1nc2c(N)nc3c(c2n1NCCCNC(=O)N1CCOCC1)CCCC3` returned a melting point of 152 to 154 °C. Next, `CCCCCCCCCCCCCCC(O)CO` (stereo not drawn): 76 to 77 °C; `Cc1cc(CC2(Cc3cc(C)nc(Cl)c3)c3ccccc3-c3ncccc32)cc(Cl)n1`: 159 to 160 °C. Consider `CCOC(=O)C(=O)c1csc(NC(c2ccccc2F)c2ccccc2F)n1`, for which the melting point fell in the range of 122 to 124 °C. For `O=C(O)CCCCCNC(=O)c1cn2c3c(cccc13)CCC2`, the melting point is 158 to 161 °C. For `CCC[C@H]1CC[C@H](C(=O)Oc2ccc(-c3ccc(F)cc3)cc2)CC1`, the melting point was 96 °C. Compound `Oc1ccc2c(c1)CCCC(c1ccccc1)=C2c1ccc(OCCCCCCSCc2ccccn2)cc1` registered a melting point of 127 °C. As for `COC(=O)c1ccc(-c2ccc(Cl)cc2)c(-c2ccc(Cl)cc2Cl)c1`, the figure is 136 °C; as for `Cc1cccc(-c2cc(C(F)(F)F)n3cnc(C#N)c3n2)c1`, 202 °C. In turn, `O=C1CCC(c2cccc(C(F)(F)F)c2)=NN1` yielded a melting point of 211 to 214 °C. As for `Cc1ccccc1C(=O)c1ccccc1C`, the figure is 66 to 67 °C; as for `Cc1sc2nc(N)[nH]c(=O)c2c1-c1ccc(F)cc1`, 360 to 362 °C.

`COC(=O)/C=C/c1ccc2nn(C)cc2c1C(=O)OC` gave a melting point of 232 to 234 °C. Compound `O=C(Cn1c(-c2ccc(Cl)cc2)nc2cccnc21)N1CCCC1` had a melting point of 224 to 225 °C. In turn, `CC(=O)N(c1nc2cc3nc(N(C(C)=O)N4CCN(C)CC4)sc3cc2s1)N1CCN(C)CC1` returned a melting point of 256 to 258 °C. In turn, `Cc1cc(C(N)=O)ncc1C(c1c(F)ccc(F)c1F)S(=O)(=O)CCCC(F)(F)F` (stereo not drawn) registered a melting point of 201 to 203 °C.

Compound `NC(=O)c1ccc(N2CCN(Cc3cn4cc(Cl)ccc4n3)CC2)cc1` returned a melting point of 240 to 241 °C. Next, `CCc1ccc(-c2cc3c(O)cccc3o2)s1`: 87 to 90 °C; `CC(C)c1cc(C#N)cc(C(=O)Nc2ccn(C)n2)n1`: 174 °C.

`O=C(O)CCc1cc(OCC2CC2)nn1Cc1ccc(C(F)(F)F)cc1Cl` had a melting point of 115 to 116 °C. Regarding `CC(=O)CN1CCc2c(c(=O)oc3cc(C)c(Cl)cc23)C1`, the melting point was in the range of 172 to 175 °C.

In the case of `N=C(Nc1ccc(C(=O)O)cc1)Nc1nc(-c2ccccc2)cs1`, the melting point fell in the range of 245 to 247 °C. In turn, `O=c1[nH]ccc2c1ccn2-c1ccc(C(F)(F)F)cc1Cl` registered a melting point of 233 to 235 °C. For the compound `O=C(Nc1ccccc1)Nc1cc(F)ccc1C(=O)O`, the melting point lay within 163 to 166 °C. Consider `CC(=NNC(=O)c1ccncc1)c1ccc2nnn(Cc3ccc4ncccc4c3)c2n1`, for which the melting point was 239 to 241 °C.

`O=C(NC(=O)c1c(F)cccc1F)Nc1ccc(C(F)(F)F)cn1` returned a melting point of 215 to 220 °C. Compound `CS(=O)(=O)c1cc(C(=O)NC(=N)N)c(NCc2ccco2)cc1Cl` returned a melting point of 96 to 102 °C. `CCOC(=O)C(=O)Nc1cccc([N+](=O)[O-])c1C#N` yielded a melting point of 111 to 113 °C. Next, `C=CCC(C)(C)C(=O)O[C@H]1C[C@H](O)C=C2C=C[C@H](C)[C@H](CCC3CC(O)CC(=O)O3)[C@H]21` (stereo partly drawn): 141 to 142 °C; `CCCCCCCNC(=O)Oc1ccc2c(c1)CCCN2`: 67 °C. `CN(Cc1cc(C(F)(F)F)cc(C(F)(F)F)c1)C(=O)c1cnc2ccc(Cl)cc2c1-c1ccccc1` returned a melting point of 105 to 106 °C.

On to `CC(C)[C@H](NC(=O)OCc1ccccc1)C(N)=O`, for which the melting point turned out to be 206 °C. As for `O=C(O)c1cccc2ccc3c4ccccc4[nH]c3c12`, the figure is 343 °C. Turning to `Cc1ccc(S(=O)(=O)Cc2cccc(C(F)(F)F)c2)cc1`, the melting point is 139 to 140 °C. Regarding `CP(C)(=O)COC(=O)c1ccccc1Nc1cccc(C(F)(F)F)c1`, the melting point was 85 °C.

Consider `Cc1cc(C)nc(NC(N)=Nc2ccc(Cl)cc2)n1`, for which the melting point came out at 203 °C. In the case of `COc1cccc(S(=O)(=O)c2ccc3c(c2)c(CCN(C)C(=O)OC(C)(C)C)c(C)n3C)c1`, the melting point lay within 123 to 127 °C. Consider `O=C(Cc1ccccc1)N[C@@H]1C(=O)N2C[C@@H](O)CS[C@H]12`, for which the melting point was 166 to 167 °C.

In the case of `CCOC(=O)N1CCN(CCCCCCNc2cc(OC)cc3c(C)ccnc23)CC1`, the melting point was 59 to 60 °C. For `Cc1occ(S(=O)(=O)NC(C)(C)C)c1C`, the melting point was in the range of 95 to 96 °C.

In turn, `CCOC(=O)c1cnc(-c2ccccc2OCC)[nH]c1=O` showed a melting point of 144 to 149 °C. `c1cn(Cc2nc(-c3ccc4c(c3)OCO4)c3cc4c(cc3n2)OCO4)cn1` gave a melting point of 182 to 185 °C. Turning to `CN1c2ccncc2NC(c2ccccc2)c2cccn21` (stereo not drawn), the melting point lay in the range of 200 to 203 °C. As for `Cc1cc(-c2cc(C(F)(F)F)n3cnc(-c4ccncc4)c3n2)ccc1C(F)(F)F`, the figure is 225 °C; as for `CC(=O)NC1Cc2ccc(O)cc2C1` (stereo not drawn), 123 to 126 °C; as for `O=c1[nH]c2cccc(OCCNCc3ccccc3)c2[nH]1`, 132 to 135 °C. Compound `O=c1c2ccccc2ccc2cc(CCO)ccc12` registered a melting point of 73 to 75 °C. Consider `Cc1oc(-c2cccc(C(F)(F)F)c2)nc1COc1cccc(CN(O)C(N)=O)c1`, for which the melting point lay within 160 to 161 °C. `O=C1Nc2ccc(Cl)cc2C1(O)Cc1ccccc1` (stereo not drawn) came in with a melting point of 204 to 205 °C. Next, `NS(=O)(=O)c1ccc(C(=O)c2ccc(O)cc2)s1`: 183 to 190 °C; `COc1ccc(Nc2ccc(O)cc2)c(C(C)=O)c1`: 118 to 119 °C; `C#CCOc1cc2c(cc1F)CCC2CCNC(=O)CC` (stereo not drawn): 78 to 81 °C. The compound `NC(=O)c1ccc2c(c1)C(=O)c1ccccc1C2=O` yielded a melting point of 299 °C. `CCOC(=O)[C@H]1CC(OC(C)=O)CN1S(=O)(=O)c1ccc(C)cc1` (stereo partly drawn) had a melting point of 82 to 83 °C. For `OCCCCCCOc1ccc(OCc2ccccc2)cc1`, the melting point fell in the range of 94 to 97 °C.
